US11905537B2, “Bifunction chemical epigenetic modifiers and methods of use” (The University of North Carolina at Chapel Hill, priority 2017, dated 2024)
Where “and” joins values, the source holds several entries; their conditions need not be identical. Equal entries are not always repeated.

Key:
Assay type in all cases: cell-based, human
[1] = test system: BFP reporter gene downstream of a tre3g promoter; assay: BFP reporter activation in HEK 293T cells with dCas9 systems, flow cytometry
From the text: To test for changes in gene expression, human embryonic kidney (HEK) 293T cells were transfected with a BFP reporter gene downstream of a tre3g promoter and performed flow cytometry on at least 100,000 cells after co-expressing the gRNA and dCas9 machinery(Ma, D. et al. Nat. Commun. 7, 13056 (2016)). As a benchmark control for gene activation, a dCas9-p300 fusion protein known to increase expression was used (Hilton, I. B. et al., Nat. Biotechnol. 33, 510-517 (2015)). Using a gRNA that targets the tre3g promoter at six interspaced sites, the dCas9-p300 increased BFP expression 14-fold compared to the non-targeting (NT) control gRNA (FIG. 21A, p<0.05). Next, activating the reporter gene with a plasmid expressing dCas9 (N-terminus)-FKBPx2 (C-terminus) was tested using three predicted activating bifunctional CEMs.
Cell culture: Low passage (p30-40) HEK 293T cells were cultured with high-glucose DMEM (Corning, 10-013-CV) supplemented with 10% FBS serum (Atlantic Biologicals, S11550), 10 mM HEPES (Corning, 25-060-Cl), NEAA (Gibco, 11140-050), Pen/Strep, and 55 μM 2-Mercaptoethanol. Cells were passaged every 2-5 days and maintained at 10-90% confluency in an incubator at 37° C. and 5% CO2.
Cell Transfection: For FIG. 21, HEK 293T cells were split into 12-well plates with 100,000 cells per well. The next day, PEI (polyethlenimine, Polysciences #23966-1) transfection was done with 1 μg of DNA, 3 μL of PEI, and 100 μL of Optimem (Gibco, 31985070). For FIGS. 21A, 21B, 22, and 23 we transfected with 0.1 μg BFP reporter; 0.7 μg dCas9-X; 0.2 μg gRNA. For FIG. 19C, FIG. 19D, FIG. 24, and FIG. 24 we transfected with 0.1 μg BFP reporter; 0.5 μg dCas9-X; 0.2 μg scFv-FKBP or ms2-FKBP; 0.2 μg gRNA. Media was change 16 hours after transfection with fresh media, with or without bifunctional CEMa addition. After 48 hours of bifunctional CEMa exposure, cells were isolated for flow cytometry analysis. For FIG. 23, HEK 293T cells were split into 6-well plates with 200,000 cells per well. The next day, PIE transfection was done with 3 μg of DNA, 9 μL of PEI, and 200 μL of Optimem. For FIGS. 23A-C and 26, 3 μg of gRNA was added in equal ratio (if applicable). Media was change 16 hours after transfection with fresh media, with or without bifunctional CEMa addition. After 48 hours of bifunctional CEMa exposure, cells were isolate for RNA extraction.
Flow cytometry: Flow cytometry was performed with the Attune Nxt as previously described (Chiarella, A. M. et al. Biochemistry 57, 2756-2761 (2018)). The data presented represents three separate transfections and significance was determined with the student's t-test.

[2] = test system: MYOD1; assay: Endogenous MYOD1 activation in HEK 293T cells, qRT-PCR; settings: 200 nM, 48 hours
From the text: (§1) Next, the plasmid-optimized dCas9-CEMa system was adapted to target endogenous mammalian genes. Because an endogenous gene was being targeted rather than hundreds of transiently expressing reporter plasmids, the dCas9 machinery (dCas9-p300, dCas9-FKBPx2 and/or MCP-FKBP) was chosen to transfect HEK 293T cells. After the cells were stably selected for integration of the dCas9- and MCP-expressing plasmids, the gRNAs that were designed to target endogenous genes were transfected. To determine the time point at which to observe more efficient dCas9 regulation by this method, cells expressing dCas9-p300 were transfected with gRNAs for myogenic differentiation (MYOD1), the RNA was extracted and qRT-PCR was performed after 24, 48 and 72 hours post transfection. […]
(§2) RNA extraction: For FIGS. 23 and 26, cells from the 6-well plates were isolated. […] RNA extraction was performed with an RNeasy Plus Mini Kit (Qiagen, 74134) and the relative enrichment of mRNA was quantified with the RNA-to-CTr 1-step kit (Thermo Fisher Scientific, 4389986). […]

[3] = test system: HEK 293T cells; assay: Cell health by cell density and morphology in the dose curve; settings: concentrations of 500 nM and above, data not shown
Description: The dCas9 “SunTag” system was adapted to be compatible with the bifunctional CEMa technology(Tanenbaum, M. E. et al. Cell 159, 635-646 (2014); (Chavez, A. et al. Nat. Methods 13, 563-567 (2016)). Using the improved dCas9-CEMa system (dCas9-FKBPx2, ms2-FKBP, tre3g ×6 gRNA, BFP reporter), the effects of a global epigenetic inhibitor in combination with a gene-specific approach was tested. After the cells were transfected, they were treated with 200 nM of CEM87 and 2.5 μM of Entinostat. BFP expression increased 34-fold compared to unreated cells as measured by flow cytometry. More specifically, A dCas9-SunTagx10 plasmid was used that expresses an array of 10 yeast-specific GCN4 (gene control protein 4) peptides from the C-terminus of the dCas9, and co-transfected with a single chain variable fragment (scFv), (made to be GCN4-specific) fused to FKBP. Theoretically, as many as 10 FKBP molecules per dCas9 would be recruited to the gene of interest, increasing the bifunctional CEMa recruitment power. With the adapted SunTag method and the tre3g ×6 gRNA, 48 hours of 200 nM CEM87 exposure increased expression 16-fold compared to untreated cells (FIG. 24, p<0.001). […] With the improved dCas9 system and the most efficient bifunctional CEMa, CEM87, a dose-curve was performed and the ideal concentration for maximum expression was determined to be 200 nM (FIG. 21D). […]

[4] = test system: ASCL1; assay: Endogenous ASCL1 activation in HEK 293T cells, qRT-PCR; settings: 48 hours
From the text: as §1, §2

[5] = test system: CXCR4; assay: Endogenous CXCR4 activation in HEK 293T cells, qRT-PCR; settings: 48 hours
From the text: as §1, §2

[6] = dCas9-FKBPx2 (FIG. 21B legend: dCas9-FKBPx1), 200 nM, 48 hours, vs untreated cells
[7] = dCas9-SunTagx10 with scFv-FKBP, tre3g ×6 gRNA, 200 nM, 48 hours, vs untreated

SMILES	increase in BFP expression [1, 6]	increase in BFP expression ([1]; dCas9-FKBPx2, ms2-FKBP, tre3g ×6 gRNA, equivalent concentration, vs cells expressing NT gRNA)	increase in BFP expression [1, 7]	MYOD1 expression change with NT gRNAs ([2]; NT gRNA control cells)	increase in MYOD1 mRNA levels ([2]; dCas9-FKBPx2 and ms2-FKBP, MYOD1 gRNAs, vs untreated, normalized to Gapdh)	increase in BFP expression in combination with HDACi ([1]; 200 nM CEM87 plus 2.5 μM entinostat, dCas9-FKBPx2, ms2-FKBP, vs untreated cells)	increase in BFP expression ([1]; dCas9-FKBPx2, 6×-tre3g gRNA, 200 nM, 48 hours, vs untreated)	increase in BFP expression ([1]; dCas9-FKBPx2, ms2-FKBP, tre3g ×6 gRNA, 200 nM, vs untreated cells)	activation of BFP expression ([1]; dCas9-FKBPx2, multiplex gRNA, 200 nM, 48 hours, vs untreated)	increase in BFP expression ([1]; dCas9-FKBPx2, single site gRNA in gene body, 200 nM, 48 hours, vs untreated)	effect on BFP expression with dCas9-HA ([1]; dCas9-HA (no FKBP recruitment site), 6×-tre3g gRNA, 200 nM, 48 hours)	activation of BFP expression ([1]; dose curve, 10 nM, dCas9-FKBPx2, ms2-FKBP)	activation of BFP expression ([1]; dose curve, 50 nM, dCas9-FKBPx2, ms2-FKBP)	ideal concentration for maximum expression ([1]; dose curve, dCas9-FKBPx2, ms2-FKBP)	cell health (cell density and morphology) [3]	increase in ASCL1 in NT samples ([4]; NT gRNA samples)	increase in ASCL1 mRNA levels ([4]; dCas9-FKBPx2 and ms2-FKBP, ASCL1 gRNAs, vs untreated)	change in CXCR4 expression with NT gRNA ([5]; NT gRNA control cells)	increase in CXCR4 expression ([5]; dCas9-FKBPx2 and ms2-FKBP, CXCR4 gRNAs, vs untreated)
CO[C@H]1C[C@@H](C)C/C(C)=C/[C@@H](CCCSCCC(=O)NCCOCCOCCOCCn2cc(COc3ccc(CCc4nc5cc(-c6c(C)noc6C)ccc5n4CCN4CCOCC4)cc3F)nn2)C(=O)C[C@H](O)[C@@H](C)[C@@H](/C(C)=C/[C@@H]2CC[C@@H](O)[C@H](OC)C2)OC(=O)[C@@H]2CCCCN2C(=O)C(=O)[C@]2(O)O[C@H]1[C@@H](OC)C[C@H]2C [CEM114]	1.6 fold	6 fold	2 fold	–	–	–	–	–	–	–	–	–	–	–	–	–	–	–	–
COc1ccc2c(c1)C(c1ccc(Cl)cc1)=N[C@@H](CC(=O)NCc1cn(CCOCCOCCOCCNC(=O)CCSCCC[C@@H]3/C=C(\C)C[C@H](C)C[C@H](OC)[C@H]4O[C@@](O)(C(=O)C(=O)N5CCCC[C@H]5C(=O)O[C@H](/C(C)=C/[C@@H]5CC[C@@H](O)[C@H](OC)C5)[C@H](C)[C@@H](O)CC3=O)[C@H](C)C[C@@H]4OC)nn1)c1nnc(C)n1-2 [CEM87]	7.5 fold and ~7 fold	–	16 fold	no significant changes in expression	13 fold	34 fold	5 fold	18 fold	4 fold	2 fold	did not significantly affect the BFP expression	2 fold	8 fold	200 nM	appeared less healthy	less than 4 fold	22 fold	less than 2 fold	10 fold
